The values below are quoted from earlier work in patent publication US7838668B2, “Method for crystallizing sucralose” (JK Sucralose Inc., priority 2006, dated 2010).

The conditions of the series: relative to sucrose; background statement, no test described.

`OC[C@H]1O[C@H](O[C@]2(CCl)O[C@H](CCl)[C@@H](O)[C@@H]2O)[C@H](O)[C@@H](O)[C@H]1Cl` [sucralose]: the sweetness is 600 times of sucrose.
